Measurements taken from patent publication US20060079512A1, “Dibenzodiazepinone analogues, processes for their production and their use as pharmaceuticals” (Ecopia BioSciences, Inc., priority 2003, published 2006).

Key:
[1] = test system: HT-29, SF-268, PC-3, MDA-MB-231; experiment: Average GI50 over the four cell lines, method (a); type: cell-based; conditions: method (a); values > 30 not considered; read-out: Average (GI50 μM)
Protocol: Compounds were dissolved at 10 mM in DMSO. Dilution in vehicle to concentrations of 30, 10, 3, 1 and 0.3 μM were prepared immediately before assays. Depending on the cell line's growth characteristics, 4000-10000 cells were plated in two 96-wells pates (day 0) and incubated for 16 hours. The following day, propidium iodide was added to one of the two plates and fluorescence measured (Tz). Test compounds were added to the second plate, as well as vehicle control, and cells further incubated for 96 hours. Each compound was tested at each concentration and in triplicates. The equivalent cell number was determined after adding propidium iodide by measuring the signal by fluorescence (C for control).

[2] = Tissue concentrations 30 min after administration; type: in vivo, female Crl: CD1 mice; conditions: 30 mg/kg
Protocol: Compounds 1 and 2 were separately dissolved in ethanol (5%), Polysorbate 80 (15%), PEG 400 (5%) and dextrose (5%) at a final concentration of 6 mg/ml (for all parenteral administration routes). For oral administration, Compound 1 was solubilized in Cremophor® EU Ethanol (50%:50%) at a final concentration of 6 mg/ml. Prior to dosing, animals (female Crl: CD1 mice; 6 weeks of age, 22-24 g) were weighed, randomly selected and assigned to the different treatment groups. Compound 1 was administered by the intravenous (iv), subcutaneous (sc), intraperitoneal (ip), or oral (po) route to the assigned animals. Compound 2 was administered by the intravenous (iv), or intraperitoneal (ip) route to the assigned animals. The dosing volume of Compounds 1 and 2 was 5 mL per kg body weight. Animals were anesthetized with 5% isoflurane prior to bleeding. Blood was collected into microtainer tubes containing the anticoagulant K2EDTA by cardiac puncture from each of 4 animals per bleeding timepoint (2 min, 5 min, 15 min, 30 min, 1 h, 2 h, 4 h and 8 h). Following collection, the samples were centrifuged and the plasma obtained from each sample was recovered and stored frozen (at approximately −80° C.) pending analysis. […] Samples were analysed by LC/MS/MS. […]

Structure (SMILES) | GI50 [1] | tissue distribution ([2]; iv and ip dosing) | tissue levels ([2]; sc dosing, compared with ip) | NOAEL (in vivo; CD-1 nu/nu, mouse, in vivo, ip) | NOAEL (in vivo; CD-1 nu/nu, mouse, in vivo, iv) | MTD (in vivo; CD-1 nu/nu, mouse, in vivo, ip, acute) | weight losses (in vivo; for several days post-injection)
CC(C)=CCC/C(C)=C/CC/C(C)=C/CN1C(=O)c2cccc(O)c2Nc2c(O)cc(O)cc21 [Compound 1, 10-farnesyl-4,6,8-trihydroxy-5,10-dihydrodibenzo[b,e][1,4]diazepin-11-one] | 4.23 µM | well distributed | significantly lower |  |  |  | 
CC(C)=CCC/C(C)=C/CC/C(C)=C/CN1C(=O)c2cccc(O)c2N(C)c2c(O)cc(O)cc21 [Compound 2, 10-farnesyl-4,6,8-trihydroxy-5-methyl-5,10-dihydro-dibenzo[b,e][1,4]diazepin-11-one] |  |  |  | 30 mg/kg | 75 mg/kg | ≥ 50 mg/kg | about 7%
